# Reference: patent US10722501B2 (BAYER AKTIENGESELLSCHAFT, priority 2016, dated 2020)
# Target: T1, recombinant full-length human prolyl endopeptidase (PREP) (Homo sapiens, UniProt P48147)
# T1 construct: To recombinant full-length human prolyl endopeptidase (PREP, R&D-Systems, 4308-SE); purchased R&D-Systems 4308-SE
# T1 sequence (P48147 1-710): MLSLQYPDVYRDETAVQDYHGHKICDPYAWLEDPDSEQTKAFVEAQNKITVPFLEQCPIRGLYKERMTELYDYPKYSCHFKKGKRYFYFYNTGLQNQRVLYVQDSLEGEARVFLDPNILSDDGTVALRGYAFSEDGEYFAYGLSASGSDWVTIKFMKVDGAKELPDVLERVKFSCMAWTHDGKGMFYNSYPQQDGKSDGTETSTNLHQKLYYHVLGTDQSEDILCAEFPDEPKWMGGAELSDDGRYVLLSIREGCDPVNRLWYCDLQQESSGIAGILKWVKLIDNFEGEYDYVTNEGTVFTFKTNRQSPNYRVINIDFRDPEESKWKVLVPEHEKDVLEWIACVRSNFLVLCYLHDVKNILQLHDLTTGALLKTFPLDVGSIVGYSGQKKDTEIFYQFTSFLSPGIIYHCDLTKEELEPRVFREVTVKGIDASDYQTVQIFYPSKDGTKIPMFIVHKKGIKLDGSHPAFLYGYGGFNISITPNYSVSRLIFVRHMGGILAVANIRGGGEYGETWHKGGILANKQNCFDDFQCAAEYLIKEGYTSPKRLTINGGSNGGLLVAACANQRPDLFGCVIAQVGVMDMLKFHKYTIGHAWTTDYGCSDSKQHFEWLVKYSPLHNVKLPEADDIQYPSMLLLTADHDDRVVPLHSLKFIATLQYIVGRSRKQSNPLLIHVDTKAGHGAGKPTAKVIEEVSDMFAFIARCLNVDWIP
# Assay: Biochemical human prolyl endopeptidase (PREP) assay with fluorescently labelled substrate
# Details: substrate Z-Gly-Pro-AMC 50 μM, 32° C., 60 min; some as mean values from multiple independent determinations
# Method in brief: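 0.4 nM (final, example) recombinant PREP in pH 7.5 Tris buffer with EDTA, GSH, BSA and Brij-35; compounds at 1 nM to 30 μM. Reaction started with 50 μM Z-Gly-Pro-AMC and followed by fluorescence (ex 360/em 465 nm) at 32° C for 60 min. IC50 interpolated from percent activity based on initial slopes.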
row,Compound,IC50 [nM]
1,"COc1ccc(Cn2nc3n(c2=O)[C@H](C(=O)N2CCC(F)(F)C2)CCC3)cn1 [Example 434, (5S)-5-[(3,3-Difluoropyrrolidin-1-yl)carbonyl]-2-[(6-methoxypyridin-3-yl)methyl]-5,6,7,8-tetrahydro[1,2,4]triazolo[4,3-a]pyridin-3(2H)-one]",2.4
2,"COc1ncc(Cn2nc3n(c2=O)[C@H](C(=O)N2C[C@@H](F)[C@@H](F)C2)CCC3)cc1Cl [Example 442, (5S)-2-[(5-Chloro-6-methoxypyridin-3-yl)methyl]-5-{[(3R,4S)-3,4-difluoropyrrolidin-1-yl]carbonyl}-5,6,7,8-tetrahydro[1,2,4]triazolo[4,3-a]pyridin-3(2H)-one]",1
3,"O=C([C@@H]1CCCc2nn(CC3(c4ccc(F)cc4F)CC3)c(=O)n21)N1CCCC1 [Example 530, (5S)-2-{[1-(2,4-Difluorophenyl)cyclopropyl]methyl}-5-(pyrrolidin-1-ylcarbonyl)-5,6,7,8-tetrahydro[1,2,4]triazolo[4,3-a]pyridin-3(2H)-one]",0.22
4,"Cc1ccc(Cn2nc3n(c2=O)C(C(=O)N2CCC4CC42)CCC3)cc1 (racemic) [Example 144, (5S)-5-[(cis)-2-Azabicyclo[3.1.0]hex-2-ylcarbonyl]-2-(4-methylbenzyl)-5,6,7,8-tetrahydro[1,2,4]triazolo[4,3-a]pyridin-3(2H)-one]",1.7
5,"Cc1cc(Cn2nc3n(c2=O)C(C(=O)N2CCCC2)CCC3)no1 (racemic) [Example 61, (5RS)-2-[(5-Methyl-1,2-oxazol-3-yl)methyl]-5-(pyrrolidin-1-ylcarbonyl)-5,6,7,8-tetrahydro[1,2,4]triazolo[4,3-a]pyridin-3(2H)-one]",16
6,"O=C(C1CC(C(F)(F)F)Cc2nn(Cc3ncc(Cl)cc3F)c(=O)n21)N1CC[C@H](F)C1 (mixture of isomers) [Example 263, (5RS,7RS)-2-[(5-Chloro-3-fluoropyridin-3-yl)methyl]-5-{[(3S)-3-fluoropyrrolidin-1-yl]carbonyl}-7-(trifluoromethyl)-5,6,7,8-tetrahydro[1,2,4]triazolo[4,3-a]pyridin-3(2H)-one]",2.8
7,"Cc1ccc(Cn2nc3n(c2=O)[C@H](C(=O)N2CC[S+]([O-])C2)CCC3)cc1 (single isomer, unassigned) [Example 193]",0.42
8,"O=C([C@@H]1CCCc2nn(Cc3cccc(Br)c3)c(=O)n21)N1C[C@@H](F)[C@@H](F)C1 [Example 211, (5S)-2-(3-Bromobenzyl)-5-{[(3R,4S)-3,4-difluoropyrrolidin-1-yl]carbonyl}-5,6,7,8-tetrahydro[1,2,4]triazolo[4,3-a]pyridin-3(2H)-one]",0.15
9,"Cc1ccc(Cn2nc3n(c2=O)[C@H](C(=O)N2CC(CF)C2)CCC3)cc1 [Example 146, (5S)-5-{[3-(Fluoromethyl)azetidin-1-yl]carbonyl}-2-(4-methylbenzyl)-5,6,7,8-tetrahydro[1,2,4]triazolo[4,3-a]pyridin-3(2H)-one]",0.93
10,"O=C(C1CCCc2nn(Cc3cc(Cl)cc(Cl)c3)c(=O)n21)N1CCCC1 (racemic) [Example 81, (5RS)-2-(3,5-Dichlorobenzyl)-5-(pyrrolidin-1-ylcarbonyl)-5,6,7,8-tetrahydro[1,2,4]triazolo[4,3-a]pyridin-3(2H)-one]",0.84
11,"O=C([C@@H]1CCCc2nn(Cc3ccc(C(F)(F)F)nc3)c(=O)n21)N1CC[C@H](F)C1 [Example 427, (5S)-5-{[(3S)-3-Fluoropyrrolidin-1-yl]carbonyl}-2-{[6-(trifluoromethyl)pyridin-3-yl]methyl}-5,6,7,8-tetrahydro[1,2,4]triazolo[4,3-a]pyridin-3(2H)-one]",1.1
12,"O=C([C@@H]1CCCc2nn(Cc3cc(C(F)(F)F)c(Cl)cn3)c(=O)n21)N1CC[C@H](O)C1 [Example 374, (5S)-2-{[5-Chloro-4-(trifluoromethyl)pyridin-2-yl]methyl}-5-{[(3S)-3-hydroxypyrrolidin-1-yl]carbonyl}-5,6,7,8-tetrahydro[1,2,4]triazolo[4,3-a]pyridin-3(2H)-one]",51.5
13,"O=C(C1CCCc2nn(Cc3ccc(OC(F)F)cc3)c(=O)n21)N1CCCC1 (racemic) [Example 7, (5RS)-2-[4-(Difluoromethoxy)benzyl]-5-(pyrrolidin-1-ylcarbonyl)-5,6,7,8-tetrahydro[1,2,4]triazolo[4,3-a]pyridin-3(2H)-one]",8
14,"O=C([C@@H]1CCCc2nn(Cc3ccc(F)cc3Cl)c(=O)n21)N1CC[C@H](F)C1 [Example 475, (5S)-2-(2-Chloro-4-fluorobenzyl)-5-{[(3S)-3-fluoropyrrolidin-1-yl]carbonyl}-5,6,7,8-tetrahydro[1,2,4]triazolo[4,3-a]pyridin-3(2H)-one]",0.33
15,"O=C([C@@H]1CCCc2nn(Cc3ccc(C(F)(F)F)nc3)c(=O)n21)N1CCC2CC21 (single isomer, unassigned) [Example 201]",5.45
16,"O=C(C1CCc2nn(Cc3ccc(Cl)nc3)c(=O)n21)N1C[C@@H](F)[C@@H](F)C1 (mixture of isomers) [Example 172, (5RS)-2-[(6-Chloropyridin-3-yl)methyl]-5-{[(3R,4S)-3,4-difluoropyrrolidin-1-yl]carbonyl}-2,5,6,7-tetrahydro-3H-pyrrolo[2,1-c][1,2,4]triazol-3-one]",6.3
17,COc1ccc(Cn2nc3n(c2=O)C(C(=O)N2CCCC2)CCC3)cc1C(F)(F)F (racemic) [Example 63],0.74
18,"Cc1ccc(Cn2nc3n(c2=O)C(C(=O)N2CCOCC2)CCC3)cc1 (racemic) [Example 159, (5RS)-2-(4-Methylbenzyl)-5-(morpholin-4-ylcarbonyl)-5,6,7,8-tetrahydro[1,2,4]triazolo[4,3-a]pyridin-3(2H)-one]",16
19,"O=C([C@@H]1CCCc2nn(Cc3ccc(Cl)c(F)c3)c(=O)n21)N1CC(F)C1 [Example 463, (5S)-2-(4-Chloro-3-fluorobenzyl)-5-[(3-fluoroazetidin-1-yl)carbonyl]-5,6,7,8-tetrahydro[1,2,4]triazolo[4,3-a]pyridin-3(2H)-one]",0.225
20,"O=C([C@@H]1CCCc2nn(CCc3ncc(C(F)(F)F)cc3Cl)c(=O)n21)N1CC(F)C1 [Example 518, (5S)-2-{[3-Chloro-5-(trifluoromethyl)pyridin-2-yl]ethyl}-5-[(3-fluoroazetidin-1-yl)carbonyl]-5,6,7,8-tetrahydro[1,2,4]triazolo[4,3-a]pyridin-3(2H)-one]",15
21,"Cc1ccc(Cn2nc3n(c2=O)[C@H](C(=O)N2CC[S+]([O-])C2)CCC3)cc1 (mixture of isomers) [Example 141, (5S)-2-(4-Methylbenzyl)-5-{[(1 RS)-1-oxido-1,3-thiazolidin-3-yl]carbonyl}-5,6,7,8-tetrahydro[1,2,4]triazolo[4,3-a]pyridin-3(2H)-one]",0.83
22,"COc1ccc(Cn2nc3n(c2=O)[C@H](C(=O)N2CCCC2)CCC3)cn1 [Example 538, (5S)-2-[(6-Methoxypyridin-3-yl)methyl]-5-(pyrrolidin-1-ylcarbonyl)-5,6,7,8-tetrahydro[1,2,4]triazolo[4,3-a]pyridin-3(2H)-one]",0.82
23,"Cc1ccc(Cn2nc3n(c2=O)C(C(=O)N2CCC(=O)C2)CCC3)cc1 (single isomer, unassigned) [Example 119, (5RS)-2-(4-Methylbenzyl)-5-[(3-oxopyrrolidin-1-yl)carbonyl]-5,6,7,8-tetrahydro[1,2,4]triazolo[4,3-a]pyridin-3(2H)-one]",1.4
